Results as given in patent US11442059B2, “Method for treating a chronic itch condition by administering small molecule MrgprX4 antagonists” (The Johns Hopkins University, priority 2017, dated 2022).

What was measured:
MRGPRX2 = biological target: T1, MRGPRX2 (Homo sapiens, UniProt Q96LB1); experiment: Cell membrane chromatography, MRGPRX2/CMC column; type: binding; settings: affinity chromatography elution profile
T1 construct: expressed in transfected cells; host or cells: HEK293 (MRGPRX2-HEK) membranes on silica
T1 sequence (Q96LB1 1-330): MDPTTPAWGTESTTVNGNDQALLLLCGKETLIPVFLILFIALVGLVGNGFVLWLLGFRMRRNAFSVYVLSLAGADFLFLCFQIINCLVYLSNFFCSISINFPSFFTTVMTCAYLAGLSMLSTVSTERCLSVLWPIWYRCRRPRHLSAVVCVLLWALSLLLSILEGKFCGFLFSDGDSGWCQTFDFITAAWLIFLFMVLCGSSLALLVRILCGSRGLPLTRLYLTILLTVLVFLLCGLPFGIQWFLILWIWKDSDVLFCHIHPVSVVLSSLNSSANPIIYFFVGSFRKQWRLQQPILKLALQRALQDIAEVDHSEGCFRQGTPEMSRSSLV
Procedure: CMC analysis was performed with a Shimadzu LC-2010A apparatus that consisted of pumps, degasser, autosampler, column oven, and a diode-array detector (Shimadzu, Kyoto, Japan). The data were acquired by the Lab-solution program (Shimadzu). The mobile phase consisted of phosphate-buffered saline (PBS; 5 mM, pH 7.4) and was delivered at a flow rate of 0.2 ml/min. The stock solutions (100 μM) of lamotrigine were prepared by separately dissolving the standard drugs in methanol. Standard solutions at various concentrations were prepared by diluting the stock solutions with the mobile phase. The MRGPRX2/CMC and MRGPRX4/CMC column was prepared as follows. Briefly, MRGPRX4-expressed HEK293 cells (1×10^8) were harvested and centrifuged (1000 g, 10 min, at 4° C.). Cells were washed with physiological saline (pH=7.4) by centrifugation at 1000 g for 10 min at 4° C. Cells were lysed by ultrasonic in Tris-HCl (50 mM, pH=7.4) for 30 min and centrifuged twice at 1000 g for 10 min at 4° C. The collected supernatant was then centrifuged at 12000 g for 20 min at 4° C. and the pellet was resuspended in 5 ml ice-cold physiological saline solution. […] The cell membrane suspension was homogenized/adsorbed with the activated silica under vacuum with agitation at 4° C. overnight. […]

CD11c+MHC-IIhigh cells = experiment: Calcium imaging of sorted mouse splenocytes; type: cell-based; settings: WT CD11c+MHC-IIhigh splenocytes
Procedure: In initial experiments, HEK293 cells were plated on 100 μg/ml poly-D-lysine coated glass cover slips, and transiently transfected with vector containing Mrgprs gene, after 24-48 hours of culture, cells were loaded with Fura 2-acetomethoxy ester calcium indicator (0.5 μM, Molecular Probes) along with pluronic F-127 dispersing agent (0.1%, Molecular Probes) for 30 minutes in the dark at 37° C., then washed with calcium imaging buffer (CIB; NaCl 125 mM, KCl 3 mM, CaCl2 2.5 mM, MgCl2 0.6 mM, HEPES 10 mM, glucose 20 mM, NaHCO3 1.2 mM, sucrose 20 mM, brought to pH 7.4 with NaOH). Drugs were added to Fura 2-loaded cells and intracellular free calcium was measured using 340 nm and 380 nm excitation wavelengths with emission measured at 520 nm with a microscope based imaging system (Nikon Eclipse TE200). Changes in emission fluorescence ratios at 340/380 nm excitation were continuously monitored at 1 second intervals. Later, experiments were performed using Mrgpra1-GFP, Mrgprc11-GFP and MRGPRX4-GFP stable cell lines to confirm the findings obtained from the transiently expressing cells.
To sort different cell types of splenocytes based on CD11c and MHC-II expression, single cell suspension of mouse splenocytes was prepared as above described. Then. […]

MRGPRX4 = MRGPRX4 (Homo sapiens, UniProt Q96LA9); experiment: Cell membrane chromatography, MRGPRX4/CMC column; type: binding; set-up: expressed in transfected cells; whole cells or crude membrane fraction
Procedure: CMC analysis was performed with a Shimadzu LC-2010A apparatus that consisted of pumps, degasser, autosampler, column oven, and a diode-array detector (Shimadzu, Kyoto, Japan). The data were acquired by the Lab-solution program (Shimadzu). The mobile phase consisted of phosphate-buffered saline (PBS; 5 mM, pH 7.4) and was delivered at a flow rate of 0.2 ml/min. The stock solutions (100 μM) of lamotrigine were prepared by separately dissolving the standard drugs in methanol. Standard solutions at various concentrations were prepared by diluting the stock solutions with the mobile phase. The MRGPRX2/CMC and MRGPRX4/CMC column was prepared as follows. Briefly, MRGPRX4-expressed HEK293 cells (1×10^8) were harvested and centrifuged (1000 g, 10 min, at 4° C.). Cells were washed with physiological saline (pH=7.4) by centrifugation at 1000 g for 10 min at 4° C. […] KD value of lamotrigine was determined by means of the MRGPRX4/CMC system as follows. […] This mobile phase with different concentrations of each compound was separately pumped through the MRGPRX4/CMC column at a flow rate of 0.2 ml min^−1 under the gradient program and the breakthrough curves of the compound with different concentrations were recorded. […] Moreover, KD could be determined by calculating the ratio of the intercept to the slope, and [R]s was obtained from the inverse of the intercept.

Sequence of MRGPRX4 (Q96LA9 whole entry): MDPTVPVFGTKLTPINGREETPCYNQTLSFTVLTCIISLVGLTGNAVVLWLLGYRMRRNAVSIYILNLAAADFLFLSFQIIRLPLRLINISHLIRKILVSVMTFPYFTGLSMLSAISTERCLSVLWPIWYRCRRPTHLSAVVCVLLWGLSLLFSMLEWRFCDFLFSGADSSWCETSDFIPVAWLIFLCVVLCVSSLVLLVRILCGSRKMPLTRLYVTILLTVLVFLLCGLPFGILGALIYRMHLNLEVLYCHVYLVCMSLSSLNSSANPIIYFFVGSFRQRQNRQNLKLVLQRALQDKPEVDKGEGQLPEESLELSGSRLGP

Nc1nnc(-c2cccc(Cl)c2Cl)c(N)n1 [LTG, Lamotrigine]
retention on MRGPRX2/CMC column (MRGPRX2): cannot retain | cells responding (Ca2+ imaging) (CD11c+MHC-IIhigh cells): approximately 5% | Retention time on MRGPRX4/CMC column (MRGPRX4; affinity chromatography elution profile): 16.7 min | Kd (MRGPRX4; regression 1/[LR]s versus 1/[L]m, n=5, read-out: KD (MRGPRX4/CMC breakthrough curves)): 417 nM
